The source of these data is ChEMBL document CHEMBL5442219.

Holding throughout (settings): Compound concentration 10 µM
In test [1] the target is Sodium-dependent dopamine transporter (Homo sapiens) (UniProt Q01959).
Test [2] deals with 5-hydroxytryptamine receptor 7 (Homo sapiens) (UniProt P34969).
The target of test [3] is T1, Alpha-1D adrenergic receptor (Homo sapiens) (UniProt P25100).
T1 sequence (whole entry): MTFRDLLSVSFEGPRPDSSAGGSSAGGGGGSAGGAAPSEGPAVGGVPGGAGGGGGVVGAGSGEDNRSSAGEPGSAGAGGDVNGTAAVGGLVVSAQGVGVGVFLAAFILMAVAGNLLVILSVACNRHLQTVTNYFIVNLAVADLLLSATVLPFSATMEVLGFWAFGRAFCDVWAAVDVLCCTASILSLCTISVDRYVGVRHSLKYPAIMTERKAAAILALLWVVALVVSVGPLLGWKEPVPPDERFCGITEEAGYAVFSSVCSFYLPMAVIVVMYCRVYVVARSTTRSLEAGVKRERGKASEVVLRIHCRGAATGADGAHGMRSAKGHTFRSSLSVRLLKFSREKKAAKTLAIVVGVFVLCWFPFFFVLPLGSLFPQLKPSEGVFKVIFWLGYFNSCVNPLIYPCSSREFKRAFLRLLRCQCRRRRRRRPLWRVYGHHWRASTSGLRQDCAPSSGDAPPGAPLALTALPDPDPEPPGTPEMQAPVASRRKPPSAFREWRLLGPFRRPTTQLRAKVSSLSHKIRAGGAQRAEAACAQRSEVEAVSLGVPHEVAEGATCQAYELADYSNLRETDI

The target in test [4] is Histamine H4 receptor (Homo sapiens) (UniProt Q9H3N8).
The target of test [5] is D(3) dopamine receptor (Homo sapiens) (UniProt P35462).
The target in test [6] is Muscarinic acetylcholine receptor M3 (Homo sapiens) (UniProt P20309).
For test [7], the target named is Beta-2 adrenergic receptor (Homo sapiens) (UniProt P07550).
For test [8], the target named is T2, Alpha-1A adrenergic receptor (Homo sapiens) (UniProt P35348).
T2 sequence (whole entry): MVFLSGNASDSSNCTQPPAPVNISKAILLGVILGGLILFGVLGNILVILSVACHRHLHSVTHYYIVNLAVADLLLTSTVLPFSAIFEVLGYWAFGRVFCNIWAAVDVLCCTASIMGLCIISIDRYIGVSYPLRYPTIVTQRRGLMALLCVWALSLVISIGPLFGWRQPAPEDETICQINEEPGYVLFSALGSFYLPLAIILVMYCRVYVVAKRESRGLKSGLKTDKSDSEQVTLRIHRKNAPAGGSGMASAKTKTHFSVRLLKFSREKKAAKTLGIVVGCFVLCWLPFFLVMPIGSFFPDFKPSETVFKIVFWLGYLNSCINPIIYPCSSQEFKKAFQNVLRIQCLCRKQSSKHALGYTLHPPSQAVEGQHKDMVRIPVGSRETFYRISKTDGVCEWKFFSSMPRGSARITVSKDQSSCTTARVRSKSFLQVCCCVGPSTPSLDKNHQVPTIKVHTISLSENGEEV

For test [9], the target named is T3, Muscarinic acetylcholine receptor M1 (Homo sapiens) (UniProt P11229).
T3 sequence (whole entry): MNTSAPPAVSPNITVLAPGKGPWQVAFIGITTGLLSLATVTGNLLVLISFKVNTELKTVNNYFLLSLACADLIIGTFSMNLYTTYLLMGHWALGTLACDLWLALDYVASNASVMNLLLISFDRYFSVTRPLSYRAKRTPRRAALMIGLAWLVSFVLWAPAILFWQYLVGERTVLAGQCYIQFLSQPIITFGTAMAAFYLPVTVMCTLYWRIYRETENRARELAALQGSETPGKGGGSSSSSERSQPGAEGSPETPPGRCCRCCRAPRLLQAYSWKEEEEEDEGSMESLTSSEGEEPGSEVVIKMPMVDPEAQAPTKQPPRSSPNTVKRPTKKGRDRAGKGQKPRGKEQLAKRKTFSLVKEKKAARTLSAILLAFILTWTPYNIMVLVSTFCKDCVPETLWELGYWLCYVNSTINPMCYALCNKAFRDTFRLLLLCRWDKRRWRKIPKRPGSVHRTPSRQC

Test [10] deals with D(1B) dopamine receptor (Homo sapiens) (UniProt P21918).
For test [11], the target named is 5-hydroxytryptamine receptor 1B (Homo sapiens) (UniProt P28222).
The target of test [12] is Histamine H1 receptor (Homo sapiens) (UniProt P35367).
Test [13] deals with Delta-type opioid receptor (Homo sapiens) (UniProt P41143).
For test [14], the target named is 5-hydroxytryptamine receptor 1D (Homo sapiens) (UniProt P28221).
For test [15], the target named is Sigma intracellular receptor 2 (Homo sapiens) (UniProt Q5BJF2).
For test [16], the target named is Mu-type opioid receptor (Homo sapiens) (UniProt P35372).
In test [17] the target is 5-hydroxytryptamine receptor 2B (Homo sapiens) (UniProt P41595).
Test [18] addresses T4, 5-hydroxytryptamine receptor 3A (Homo sapiens) (UniProt P46098).
T4 sequence (whole entry): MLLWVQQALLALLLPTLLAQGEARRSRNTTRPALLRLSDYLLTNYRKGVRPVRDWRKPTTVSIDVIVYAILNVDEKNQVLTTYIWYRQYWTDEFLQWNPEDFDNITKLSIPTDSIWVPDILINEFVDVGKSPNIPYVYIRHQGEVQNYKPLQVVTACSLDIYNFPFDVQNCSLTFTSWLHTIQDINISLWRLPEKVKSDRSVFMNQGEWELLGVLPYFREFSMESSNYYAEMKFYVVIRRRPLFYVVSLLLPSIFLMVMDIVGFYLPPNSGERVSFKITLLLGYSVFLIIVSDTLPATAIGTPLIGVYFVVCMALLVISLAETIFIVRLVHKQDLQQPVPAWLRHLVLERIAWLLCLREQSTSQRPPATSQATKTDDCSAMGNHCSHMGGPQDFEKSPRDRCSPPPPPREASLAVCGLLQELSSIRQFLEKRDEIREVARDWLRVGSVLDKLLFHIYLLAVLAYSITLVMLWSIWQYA

For test [19], the target named is D(2) dopamine receptor (Homo sapiens) (UniProt P14416).
The target in test [20] is 5-hydroxytryptamine receptor 2A (Homo sapiens) (UniProt P28223).

One may read the inhibition as the change of the read-out against control, counted positive when it falls.

Molecules are shown by their SMILES.

Sodium-dependent dopamine transporter (Homo sapiens), sequence (Q01959 whole entry): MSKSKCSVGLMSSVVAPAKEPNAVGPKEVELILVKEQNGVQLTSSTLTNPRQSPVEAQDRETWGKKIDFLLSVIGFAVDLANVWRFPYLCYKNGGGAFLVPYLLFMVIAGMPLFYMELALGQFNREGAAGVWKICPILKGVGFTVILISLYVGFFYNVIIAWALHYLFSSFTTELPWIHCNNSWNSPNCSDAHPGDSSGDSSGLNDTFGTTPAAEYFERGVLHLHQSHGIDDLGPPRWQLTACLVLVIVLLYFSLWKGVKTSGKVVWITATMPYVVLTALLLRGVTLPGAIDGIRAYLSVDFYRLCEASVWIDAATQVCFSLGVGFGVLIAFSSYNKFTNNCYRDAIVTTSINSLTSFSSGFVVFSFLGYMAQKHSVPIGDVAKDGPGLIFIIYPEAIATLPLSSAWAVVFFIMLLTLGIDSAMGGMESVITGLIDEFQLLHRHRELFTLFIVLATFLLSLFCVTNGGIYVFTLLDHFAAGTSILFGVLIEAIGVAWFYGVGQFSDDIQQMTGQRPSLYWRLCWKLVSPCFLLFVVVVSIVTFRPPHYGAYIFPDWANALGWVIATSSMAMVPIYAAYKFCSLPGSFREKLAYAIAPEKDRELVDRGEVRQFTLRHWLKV
D(3) dopamine receptor (Homo sapiens), sequence (P35462 whole entry): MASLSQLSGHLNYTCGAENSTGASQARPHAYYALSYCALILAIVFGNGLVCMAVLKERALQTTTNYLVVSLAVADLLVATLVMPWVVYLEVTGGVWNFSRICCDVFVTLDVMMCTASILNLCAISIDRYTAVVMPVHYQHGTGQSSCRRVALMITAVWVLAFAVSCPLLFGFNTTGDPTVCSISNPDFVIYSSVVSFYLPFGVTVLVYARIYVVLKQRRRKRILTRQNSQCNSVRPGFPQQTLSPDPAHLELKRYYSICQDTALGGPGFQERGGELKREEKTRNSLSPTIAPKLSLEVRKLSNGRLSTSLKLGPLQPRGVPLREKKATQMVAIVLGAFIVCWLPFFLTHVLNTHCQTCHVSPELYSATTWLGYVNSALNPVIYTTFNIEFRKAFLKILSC
Sigma intracellular receptor 2 (Homo sapiens), sequence (Q5BJF2 whole entry): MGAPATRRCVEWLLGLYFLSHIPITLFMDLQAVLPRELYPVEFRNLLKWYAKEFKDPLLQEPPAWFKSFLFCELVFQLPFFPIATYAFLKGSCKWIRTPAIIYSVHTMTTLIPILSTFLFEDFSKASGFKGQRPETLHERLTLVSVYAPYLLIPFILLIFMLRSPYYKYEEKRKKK
Delta-type opioid receptor (Homo sapiens), sequence (P41143 whole entry): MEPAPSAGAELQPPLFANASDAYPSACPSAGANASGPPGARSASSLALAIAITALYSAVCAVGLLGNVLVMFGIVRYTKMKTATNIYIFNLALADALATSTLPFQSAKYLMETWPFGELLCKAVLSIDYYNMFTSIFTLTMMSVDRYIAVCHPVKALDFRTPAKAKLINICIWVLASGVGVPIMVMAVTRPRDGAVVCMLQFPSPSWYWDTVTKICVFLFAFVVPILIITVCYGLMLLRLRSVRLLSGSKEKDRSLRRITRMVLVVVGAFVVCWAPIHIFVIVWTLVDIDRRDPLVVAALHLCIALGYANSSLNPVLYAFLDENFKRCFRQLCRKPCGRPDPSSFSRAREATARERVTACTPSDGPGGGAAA
5-hydroxytryptamine receptor 7 (Homo sapiens), sequence (P34969 whole entry): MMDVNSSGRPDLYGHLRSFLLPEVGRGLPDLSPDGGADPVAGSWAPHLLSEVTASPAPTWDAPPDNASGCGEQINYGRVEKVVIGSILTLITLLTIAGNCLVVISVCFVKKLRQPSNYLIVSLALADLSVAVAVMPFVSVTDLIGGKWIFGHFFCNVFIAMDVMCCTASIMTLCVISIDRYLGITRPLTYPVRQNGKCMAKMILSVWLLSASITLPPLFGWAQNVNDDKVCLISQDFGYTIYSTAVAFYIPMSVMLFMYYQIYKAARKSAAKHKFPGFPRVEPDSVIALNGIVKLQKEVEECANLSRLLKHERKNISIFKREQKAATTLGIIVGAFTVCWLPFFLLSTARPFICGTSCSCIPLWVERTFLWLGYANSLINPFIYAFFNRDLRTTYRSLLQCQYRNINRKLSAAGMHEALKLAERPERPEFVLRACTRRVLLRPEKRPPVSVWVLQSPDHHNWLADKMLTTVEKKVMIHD
5-hydroxytryptamine receptor 1D (Homo sapiens), sequence (P28221 whole entry): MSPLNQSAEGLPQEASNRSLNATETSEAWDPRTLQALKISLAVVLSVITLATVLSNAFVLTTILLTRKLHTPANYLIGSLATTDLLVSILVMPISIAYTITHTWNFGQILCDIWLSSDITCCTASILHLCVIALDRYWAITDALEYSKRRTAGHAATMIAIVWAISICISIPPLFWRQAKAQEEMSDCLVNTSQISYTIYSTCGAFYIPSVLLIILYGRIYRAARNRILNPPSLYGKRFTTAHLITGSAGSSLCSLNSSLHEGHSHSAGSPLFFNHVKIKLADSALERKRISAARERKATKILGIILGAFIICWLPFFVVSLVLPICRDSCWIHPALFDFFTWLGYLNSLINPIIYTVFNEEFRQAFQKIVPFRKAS
D(2) dopamine receptor (Homo sapiens), sequence (P14416 whole entry): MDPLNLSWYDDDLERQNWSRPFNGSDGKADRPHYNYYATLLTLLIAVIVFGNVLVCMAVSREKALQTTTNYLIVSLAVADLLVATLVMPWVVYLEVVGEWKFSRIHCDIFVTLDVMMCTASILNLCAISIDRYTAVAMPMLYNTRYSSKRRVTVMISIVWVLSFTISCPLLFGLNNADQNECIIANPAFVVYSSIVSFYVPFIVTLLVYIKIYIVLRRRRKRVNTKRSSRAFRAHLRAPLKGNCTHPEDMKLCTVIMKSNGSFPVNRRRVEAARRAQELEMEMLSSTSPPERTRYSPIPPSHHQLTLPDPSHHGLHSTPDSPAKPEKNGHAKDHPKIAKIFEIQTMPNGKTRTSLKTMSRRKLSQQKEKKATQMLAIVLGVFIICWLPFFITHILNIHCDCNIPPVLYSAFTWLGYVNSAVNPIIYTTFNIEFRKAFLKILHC
5-hydroxytryptamine receptor 2A (Homo sapiens), sequence (P28223 whole entry): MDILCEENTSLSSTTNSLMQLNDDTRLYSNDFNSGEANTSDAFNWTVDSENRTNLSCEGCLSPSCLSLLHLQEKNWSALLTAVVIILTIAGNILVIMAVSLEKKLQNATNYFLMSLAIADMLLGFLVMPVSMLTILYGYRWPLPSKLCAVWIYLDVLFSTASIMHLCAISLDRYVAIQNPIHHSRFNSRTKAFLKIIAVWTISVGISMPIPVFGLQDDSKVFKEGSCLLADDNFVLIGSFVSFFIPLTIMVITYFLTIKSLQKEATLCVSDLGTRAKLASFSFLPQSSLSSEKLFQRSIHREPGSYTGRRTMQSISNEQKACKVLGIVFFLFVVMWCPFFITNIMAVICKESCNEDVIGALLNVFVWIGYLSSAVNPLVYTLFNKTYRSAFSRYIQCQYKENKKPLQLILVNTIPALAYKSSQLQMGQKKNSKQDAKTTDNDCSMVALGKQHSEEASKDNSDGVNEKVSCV
Muscarinic acetylcholine receptor M3 (Homo sapiens), sequence (P20309 whole entry, looked up): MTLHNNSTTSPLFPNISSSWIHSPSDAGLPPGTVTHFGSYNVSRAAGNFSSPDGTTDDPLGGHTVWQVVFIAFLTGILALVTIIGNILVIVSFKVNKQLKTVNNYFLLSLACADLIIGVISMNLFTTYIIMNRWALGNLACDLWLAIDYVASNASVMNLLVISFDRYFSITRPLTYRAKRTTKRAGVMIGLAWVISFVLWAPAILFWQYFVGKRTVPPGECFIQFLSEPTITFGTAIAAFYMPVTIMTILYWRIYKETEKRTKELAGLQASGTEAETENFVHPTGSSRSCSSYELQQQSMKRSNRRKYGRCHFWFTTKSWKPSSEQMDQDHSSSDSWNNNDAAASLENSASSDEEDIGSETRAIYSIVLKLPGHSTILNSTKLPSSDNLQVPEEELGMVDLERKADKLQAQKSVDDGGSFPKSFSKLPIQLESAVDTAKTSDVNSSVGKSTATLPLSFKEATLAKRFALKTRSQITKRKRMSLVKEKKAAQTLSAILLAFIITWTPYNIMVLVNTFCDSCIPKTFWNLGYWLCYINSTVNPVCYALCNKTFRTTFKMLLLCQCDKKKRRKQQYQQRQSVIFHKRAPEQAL
D(1B) dopamine receptor (Homo sapiens), sequence (P21918 whole entry): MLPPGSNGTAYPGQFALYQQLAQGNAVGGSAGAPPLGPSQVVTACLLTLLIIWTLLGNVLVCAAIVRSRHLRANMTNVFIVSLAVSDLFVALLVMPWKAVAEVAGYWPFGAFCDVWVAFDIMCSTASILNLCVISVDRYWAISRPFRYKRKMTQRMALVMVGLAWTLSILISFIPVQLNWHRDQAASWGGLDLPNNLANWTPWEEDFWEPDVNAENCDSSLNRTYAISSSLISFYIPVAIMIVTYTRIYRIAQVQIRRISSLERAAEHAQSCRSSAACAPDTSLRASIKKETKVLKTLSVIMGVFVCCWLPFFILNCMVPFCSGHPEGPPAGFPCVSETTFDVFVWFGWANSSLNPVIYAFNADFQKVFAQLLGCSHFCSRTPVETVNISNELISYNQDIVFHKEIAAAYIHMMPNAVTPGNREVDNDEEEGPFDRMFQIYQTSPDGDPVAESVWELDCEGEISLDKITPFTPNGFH
Mu-type opioid receptor (Homo sapiens), sequence (P35372 whole entry): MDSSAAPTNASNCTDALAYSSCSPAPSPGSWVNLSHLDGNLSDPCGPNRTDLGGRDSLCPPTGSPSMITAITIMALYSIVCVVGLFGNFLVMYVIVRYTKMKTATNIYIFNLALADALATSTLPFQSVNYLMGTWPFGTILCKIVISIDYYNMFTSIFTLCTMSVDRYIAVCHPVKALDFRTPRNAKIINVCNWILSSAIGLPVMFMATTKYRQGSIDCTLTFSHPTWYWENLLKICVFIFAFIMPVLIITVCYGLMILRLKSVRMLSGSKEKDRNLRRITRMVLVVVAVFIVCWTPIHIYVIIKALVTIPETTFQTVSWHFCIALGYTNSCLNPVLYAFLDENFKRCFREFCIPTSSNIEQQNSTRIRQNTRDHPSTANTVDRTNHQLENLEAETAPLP

Take `Cc1c(P(=S)(c2ccccc2)c2ccccc2)n2ccccc2[n+]1C/C=C/c1ccccc1`: the inhibition is 83.2% in [1]; 34.3% in test [2]; 8.81% in [3]; 31% in [4]; 48.5% in test [5]; 71% in [6]. Moreover, the inhibition was 65.4% in test [7]; 28.7% in [8]; 88.2% in test [9]; 24.6% in test [10]; 45.4% in test [11]; 67.1% in test [12]. The inhibition in [13] was 36.7%; in [14], 40.5%; in test [15], 88%; in [16] it was 87.3%; in test [17] it was 8.18%; in test [18], 20.9%. The inhibition in test [19] is 49%; in test [20], 55.7%.
For `CN(C)C(=O)N[C@H]1CC[C@H](CCN2CCN(c3cccc(Cl)c3Cl)CC2)CC1`, the inhibition was 52.5% in test [1]; 104% in test [2]; 89.4% in test [3]; 2.57% in test [4]; 27.8% in test [6]; 31.6% in [7]. Moreover, the inhibition in test [8] is 89.1%; in test [9], 11.8%; in test [10], -0.02%; in test [11] it was 93.7%; in test [12], 98.7%; in [13] it was 11.3%. The inhibition in test [14] is 101%; in [15], 88.3%; in test [16], 4.29%; in test [17], 99%; in [18] it was 6.73%; in test [19] it was 100%. Also, the inhibition in [20] was 110%.
On to `Cc1cc(NC(=O)NCCN2CCC(O)(Cc3ccccc3)CC2)c2ccccc2n1`, for which the inhibition in test [1] is 43.9%; in test [2], 32%; in test [3] it was 16.2%; in [4], 3.45%; in test [5] it was 27.4%; in [6], 24.4%. Moreover, the inhibition in test [7] is 28.1%; in [8] it was 23.9%; in test [9], 13.7%; in test [10] it was 41.9%; in [11], 11.5%; in test [12], 5.97%. The inhibition in test [13] is 15.6%; in test [14] it was 91.7%; in test [15] it was 86%; in [16], 43.3%; in test [17], 62.2%; in test [18], 4.17%. For the same compound, the inhibition in [19] is 65.3%; in [20], 52.7%.
With `NCCc1cn(S(=O)(=O)c2c(Cl)nc3sccn23)c2ccccc12`, the inhibition in test [1] was 67.9%; in test [2], 66.9%; in test [3], 38.2%; in test [4], 11.2%; in test [5], 32%; in test [6], 25.2%. In addition, the inhibition was 39.8% in test [7]; 57.5% in test [8]; 38.9% in [9]; 38.9% in [10]; 82.5% in test [11]; 52.1% in test [12]. For the same compound, the inhibition is 6.57% in [13]; 81.9% in [14]; 82.9% in [15]; 16.8% in test [16]; 98.3% in [17]; 79.2% in [18]. Also, the inhibition in test [19] was 42.1%; in test [20] it was 94.2%.
Turning to `c1nc(CC2CCNCC2)c[nH]1`, the inhibition in [1] was 14.6%; in test [2], 11.9%; in test [3] it was 7.26%; in [4], 105%; in [5], -4.62%; in [6] it was 6.47%. In addition, the inhibition in test [7] is 5.09%; in test [8] it was -4.11%; in test [9], 6.59%; in test [10] it was 5.35%; in test [11], 17.7%; in [12] it was 26.1%. Also, the inhibition is 3.71% in test [13]; 9.58% in test [14]; 27.7% in test [15]; -6.55% in test [16]; 30.4% in test [17]; 6.29% in test [18]. Moreover, the values for the inhibition in test [19] and in test [20] were 27.8% and 20.8%, respectively.
As for `CN1CCC(C(=O)c2cccc(NC(=O)c3c(F)cc(F)cc3F)n2)CC1`, the inhibition in test [1] was 42.1%; in test [2], 52.8%; in test [3], 6.55%; in test [4], -0.15%; in [6] it was 43.5%; in test [7], -3.08%. Moreover, the inhibition in [8] was 17.6%; in test [9], 43.1%; in test [10] it was 73.7%; in [11], 43.4%; in test [12] it was 16.4%; in [13] it was 1.97%. Moreover, the inhibition in [14] was 80.7%; in test [15], 91%; in test [16], 10.5%; in test [17] it was 60.6%; in test [18] it was 20.9%; in test [19], 26.2%. The inhibition in test [20] was 1.42%.
